Measurements published in patent US8846947B2, “Benzimidazoles and related analogs as sirtuin modulators” (GlaxoSmithKline LLC, priority 2008, dated 2014).
Where two headings read alike, the source gives them in different places.

Biological target: T1, SIRT1 (Homo sapiens, UniProt Q96EB6)
T1 sequence (Q96EB6 1-747): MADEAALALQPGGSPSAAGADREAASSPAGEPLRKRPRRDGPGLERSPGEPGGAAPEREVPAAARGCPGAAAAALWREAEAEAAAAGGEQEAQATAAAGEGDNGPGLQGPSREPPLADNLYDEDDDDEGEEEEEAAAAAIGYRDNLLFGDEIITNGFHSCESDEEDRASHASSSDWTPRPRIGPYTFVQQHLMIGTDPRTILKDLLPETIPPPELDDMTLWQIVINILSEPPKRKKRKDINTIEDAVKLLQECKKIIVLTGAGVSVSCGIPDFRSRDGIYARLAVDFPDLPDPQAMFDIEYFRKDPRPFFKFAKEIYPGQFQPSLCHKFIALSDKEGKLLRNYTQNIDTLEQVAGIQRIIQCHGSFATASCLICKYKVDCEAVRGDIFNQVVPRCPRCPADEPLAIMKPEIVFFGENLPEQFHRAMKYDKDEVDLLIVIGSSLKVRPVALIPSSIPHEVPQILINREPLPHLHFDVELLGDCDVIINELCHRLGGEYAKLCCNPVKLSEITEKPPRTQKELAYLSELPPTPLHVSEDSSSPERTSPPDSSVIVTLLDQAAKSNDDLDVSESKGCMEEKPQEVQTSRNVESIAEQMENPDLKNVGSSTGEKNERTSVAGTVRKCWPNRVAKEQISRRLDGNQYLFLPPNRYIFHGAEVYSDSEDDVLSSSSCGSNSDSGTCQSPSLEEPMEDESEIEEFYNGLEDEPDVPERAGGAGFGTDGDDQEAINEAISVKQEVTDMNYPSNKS
Experiment: Mass spectrometry based SIRT1 deacetylase activation assay (acetylated p53-derived peptide substrate)
Assay type: biochemical

[1] = 0.5 μM peptide substrate, 120 μM βNAD+, 10 nM SIRT1, 25 minutes at 25° C.
[2] = 0.5 μM peptide substrate, 120 μM βNAD+, 10 nM SIRT1, 25 min at 25° C.
[3] = 0.5 μM peptide substrate, 120 μM βNAD+, 10 nM SIRT1, 25 min at 25° C., read-out: EC1.5

Row | Compound | EC1.5 [1] | Fold Act. (percent maximum fold activation) [1] | EC1.5 | Fold Act. (percent maximum fold activation) | also measured
1 | O=C(Nc1nccs1)c1cccc2[nH]c(-c3ccc(N4CCOCC4)cc3)nc12 [Compound 268] |  |  | A (EC1.5<1.0 uM) | A (Fold activation >200%) | 
2 | O=C(Nc1cccc2[nH]c(-c3cc(F)ccc3C(F)(F)F)nc12)c1cscn1 [Compound 384] |  |  | B (EC1.5 1-25 uM) | A (Fold activation >200%) | 
3 | O=C(Nc1nccs1)c1cccc2[nH]c(-c3cccnc3)nc12 [Compound 227] |  |  | B (EC1.5 1-25 uM) | A (Fold activation >200%) | 
4 | Cc1cc(NC(=O)c2cccc3[nH]c(-c4ccccc4OCCN4CCOCC4)nc23)n(C)n1 [Compound 487] |  |  |  |  | Fold Act. (percent maximum fold activation) [2]: A (Fold activation >200%); EC1.5 [3]: 1000 to 25000 nM
5 | O=C(Nc1nccs1)c1cccc2[nH]c(-c3ccc4c(c3)OC(F)(F)O4)nc12 [Compound 221] |  |  | C (EC1.5 >25 uM) | B (Fold Activation <200%) | 
6 | O=C(Nc1cc[nH]n1)c1cccc2[nH]c(-c3cccc(C(F)(F)F)c3)nc12 [Compound 207] |  |  | B (EC1.5 1-25 uM) | A (Fold activation >200%) | 
7 | O=C(Nc1ccccn1)c1cccc2[nH]c(-c3ccccc3OC3CCNCC3)nc12 [Compound 538] |  |  |  |  | Fold Act. (percent maximum fold activation) [2]: A (Fold activation >200%); EC1.5 [3]: 1000 to 25000 nM
8 | O=C(Nc1cc[n+]([O-])cc1)c1cccc2[nH]c(-c3ccccc3C(F)(F)F)nc12 [Compound 337] |  |  | A (EC1.5<1.0 uM) | A (Fold activation >200%) | 
9 | O=C(Nc1ccccn1)c1cccc2[nH]c(-c3ccnc(N4CCCC4)c3)nc12 [Compound 540] |  |  |  |  | Fold Act. (percent maximum fold activation) [2]: A (Fold activation >200%); EC1.5 [3]: < 1000 nM
10 | O=C(Nc1cccc2[nH]c(-c3cc(F)ccc3C(F)(F)F)nc12)c1cnccn1 [Compound 387] |  |  | B (EC1.5 1-25 uM) | A (Fold activation >200%) | 
11 | O=C(Nc1ccccn1)c1cccc2[nH]c(-c3cccc4c3OC(F)(F)O4)nc12 [Compound 496] |  |  |  |  | Fold Act. (percent maximum fold activation) [2]: A (Fold activation >200%); EC1.5 [3]: < 1000 nM
12 | O=C(Nc1nccs1)c1cccc2[nH]c(-c3ccc(OCC(O)CO)cc3)nc12 (stereo not shown) [Compound 325] |  |  | A (EC1.5<1.0 uM) | A (Fold activation >200%) | 
13 | O=C1COc2ccc(-c3nc4c(C(=O)Nc5ccccn5)cccc4[nH]3)cc2N1 [Compound 565] |  |  |  |  | Fold Act. (percent maximum fold activation) [2]: B (Fold Activation <200%); EC1.5 [3]: 1000 to 25000 nM

Second part, led by results:

Row | EC1.5 [1] | Fold Act. (percent maximum fold activation) [1] | EC1.5 | Fold Act. (percent maximum fold activation) | Compound | also measured
14 | A (EC1.5<1.0 uM) | A (Fold activation >200%) |  |  | CC1(C)CN(c2ccc(-c3nc4c(C(=O)Nc5ccccn5)cccc4[nH]3)c(C(F)(F)F)c2)CCO1 [Compound 707] | 
15 | A (EC1.5<1.0 uM) | A (Fold activation >200%) |  |  | COCCN1CCN(c2cccc(-c3nc4c(C(=O)Nc5nccs5)cccc4[nH]3)c2)CC1 [Compound 710] | 
16 | A (EC1.5<1.0 uM) | A (Fold activation >200%) |  |  | O=C(Nc1cccc(OC[C@@H](O)CO)c1)c1cncc2[nH]c(-c3ccc(Cl)cc3C(F)F)nc12 [Compound 716] | 
17 | A (EC1.5<1.0 uM) | A (Fold activation >200%) |  |  | Cc1cnc(NC(=O)c2cncc3[nH]c(-c4ccc(Cl)cc4C(F)(F)F)nc23)s1 [Compound 652] | 
18 | A (EC1.5<1.0 uM) | A (Fold activation >200%) |  |  | Cc1cnc(NC(=O)c2cncc3[nH]c(-c4ccc(OC[C@H](O)CO)cc4C(F)(F)F)nc23)s1 [Compound 762] | 
19 | A (EC1.5<1.0 uM) | A (Fold activation >200%) |  |  | O=C(Nc1ccc(OC[C@@H](O)CO)cc1)c1cccc2[nH]c(-c3cccc(N4CCOCC4)c3)nc12 [Compound 787] | 
20 | A (EC1.5<1.0 uM) | A (Fold activation >200%) |  |  | CC1(C)CN(c2ccc(C(F)(F)F)c(-c3nc4c(C(=O)Nc5ccccn5)cccc4[nH]3)c2)CCO1 [Compound 709] | 
